Calls of active or inactive are those of the source. The calls are words filed in the database; no cut-off is given here. Numbered stars: 1 amine (or outer) side, 2 acyl side, 3 side chain; on linkers, the order of the positions; unused ones are H or OH. Square brackets hold non-standard residues; d marks the D form. Peptide text beside a SMILES is read from it. * marks the point of attachment. Phe(4-CH2SO3H) = N[C@@H](Cc1ccc(CS(=O)(=O)O)cc1)C(=O)O; sY = N[C@@H](Cc1ccc(OS(=O)(=O)O)cc1)C(=O)O; C18 diacid = O=C(O)CCCCCCCCCCCCCCCCC(=O)*; γGlu = O=C(O)[C@H](CCC(=O)[*:2])N[*:1]; NMeF = CN[C@@H](Cc1ccccc1)C(=O)O; NMeD = CN[C@@H](CC(=O)O)C(=O)O; dNMeD = CN[C@H](CC(=O)O)C(=O)O; Nle = CCCC[C@H](N)C(=O)O; AEEA = NCCOCCOCC(=O)O
How the values were obtained:
[1] = Drug level in Ellegaard Gottingen minipig plasma treated with C18d-gammaGlu-(OEG)2-Asp-Phe(4sm)-Nle-Gly-Trp-Nle-DMeAspMePhe-NH2 at 5 nmol/kg, iv administered as single dose by LC-MS/MS analysis; format: ADME, organism-based, Sus scrofa; conditions: pig, in vivo
[2] = target: T1, Gastrin/cholecystokinin type B receptor (Homo sapiens, UniProt P32239); assay: (§1) Agonist activity at human CCK2R expressed in human 1321N1 cells assessed as IP1 accumulation after 1 hr by HTRF assay; format: functional, cell-based
T1 sequence (P32239 whole entry): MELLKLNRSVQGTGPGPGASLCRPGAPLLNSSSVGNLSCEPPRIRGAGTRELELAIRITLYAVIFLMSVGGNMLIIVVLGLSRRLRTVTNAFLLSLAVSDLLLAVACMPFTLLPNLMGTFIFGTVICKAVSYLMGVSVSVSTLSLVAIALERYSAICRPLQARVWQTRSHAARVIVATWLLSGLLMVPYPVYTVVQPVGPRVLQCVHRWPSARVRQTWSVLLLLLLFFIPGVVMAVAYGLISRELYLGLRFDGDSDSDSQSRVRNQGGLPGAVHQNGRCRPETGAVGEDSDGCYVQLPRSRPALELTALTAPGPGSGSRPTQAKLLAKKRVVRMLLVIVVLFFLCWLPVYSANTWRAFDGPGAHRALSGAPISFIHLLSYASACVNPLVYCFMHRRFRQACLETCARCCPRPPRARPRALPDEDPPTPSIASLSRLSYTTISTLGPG

[3] = target: T2, Cholecystokinin receptor type A (Homo sapiens, UniProt P32238); assay: (§2) Agonist activity at human CCK1R expressed in human 1321N1 cells assessed as IP1 accumulation after 1 hr by HTRF assay; format: functional, cell-based
T2 sequence (P32238 whole entry): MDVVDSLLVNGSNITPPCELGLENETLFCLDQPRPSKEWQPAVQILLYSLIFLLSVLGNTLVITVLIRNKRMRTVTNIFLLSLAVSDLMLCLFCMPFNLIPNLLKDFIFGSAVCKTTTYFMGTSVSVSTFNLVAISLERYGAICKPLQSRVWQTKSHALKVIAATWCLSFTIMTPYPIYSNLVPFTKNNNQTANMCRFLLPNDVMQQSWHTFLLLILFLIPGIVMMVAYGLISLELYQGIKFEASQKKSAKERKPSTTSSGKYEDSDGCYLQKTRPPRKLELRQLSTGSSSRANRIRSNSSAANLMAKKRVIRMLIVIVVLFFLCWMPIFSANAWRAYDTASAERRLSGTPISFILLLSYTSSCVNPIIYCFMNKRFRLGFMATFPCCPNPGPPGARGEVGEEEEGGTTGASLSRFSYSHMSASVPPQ

Sus scrofa [4] = assay: Anti-obesity activity in lean Landrace Yorkshire Duroc pig assessed as food intake at 30 nmol/kg, sc measured up to 24 hrs post dose (reference value: 1.8 to 2.1 kg); format: functional
Sus scrofa [5] = assay: Anti-obesity activity in lean Landrace Yorkshire Duroc pig assessed as food intake at 30 nmol/kg, sc measured at 48 to 72 hrs post dose (reference value: 1.8 to 2.1 kg); format: functional
Sus scrofa [6] = assay: Anti-obesity activity in lean Landrace Yorkshire Duroc pig assessed as food intake at 30 nmol/kg, sc measured at 72 to 96 hrs post dose (reference value: 1.8 to 2.1 kg); format: functional
[7] = Toxicity in lean Landrace Yorkshire Duroc pig at 30 nmol/kg, sc measured up to 96 hrs post dose; format: organism-based, Sus scrofa; conditions: in vivo
[8] = Plasma concentration in lean Landrace Yorkshire Duroc pig at 30 nmol/kg, sc measured after 96 hrs post dose; format: ADME, organism-based, Sus scrofa
Sus scrofa [9] = assay: Anti-obesity activity in lean Landrace Yorkshire Duroc pig assessed as food intake at 30 nmol/kg, sc measured at 24 to 48 hrs post dose (reference value: 1.8 to 2.1 kg); format: functional
[10] = target: T1, Gastrin/cholecystokinin type B receptor; assay: (§3) Displacement of [125I]-CCK-8 from human CCK2R expressed in human 1321N1 cell membranes after 2 hrs by SPA assay
[11] = target: T2, Cholecystokinin receptor type A; assay: (§4) Displacement of [125I]-CCK-8 from human CCK1R expressed in human 1321N1 cell membranes after 2 hrs by SPA assay
[12] = target: T3, Gastrin/cholecystokinin type B receptor (Homo sapiens) (UniProt P32239); assay: as §1; format: functional, cell-based
T3 sequence (whole entry): T1 sequence (P32239 whole entry)

[13] = target: T4, Cholecystokinin receptor type A (Homo sapiens) (UniProt P32238); assay: as §2; format: functional, cell-based
T4 sequence (whole entry): T2 sequence (P32238 whole entry)

[14] = target: T3, Gastrin/cholecystokinin type B receptor (Homo sapiens); assay: as §3
[15] = target: T4, Cholecystokinin receptor type A (Homo sapiens); assay: as §4

Drug uptake [1] | EC50 [3] [nM] | concentration at 96 h [8] [nM] | pEC50 [12] | pEC50 [13] | pIC50 [14] | pIC50 [15] | SMILES | EC50 [2] [nM] | Activity (Sus scrofa [4]) [kg] | Activity (Sus scrofa [5]) [kg] | Activity (Sus scrofa [6]) [kg] | Activity [7] | Activity (Sus scrofa [9]) [kg] | IC50 [10] [nM] | IC50 [11] [nM]
Active |  |  |  |  |  |  | CCCC[C@H](NC(=O)[C@H](Cc1ccc(CS(=O)(=O)O)cc1)NC(=O)[C@H](CC(=O)O)NC(=O)COCCOCCNC(=O)COCCOCCNC(=O)CC[C@H](NC(=O)CCCCCCCCCCCCCCCCC(=O)O)C(=O)O)C(=O)NCC(=O)O ({C18 diacid-γGlu-AEEA-AEEA}-D[Phe(4-CH2SO3H)][Nle]G-OH) |  |  |  |  |  |  |  | 
Active |  |  |  |  |  |  | CCCC[C@H](NC(=O)[C@H](Cc1ccc(CS(=O)(=O)O)cc1)NC(=O)[C@H](CC(=O)O)NC(=O)COCCOCCNC(=O)COCCOCCNC(=O)CC[C@H](NC(=O)CCCCCCCCCCCCCCCCC(=O)O)C(=O)O)C(=O)NCC(=O)N[C@@H](Cc1c[nH]c2ccccc12)C(=O)N[C@@H](CCCC)C(=O)N(C)[C@@H](CC(=O)O)C(=O)O ({C18 diacid-γGlu-AEEA-AEEA}-D[Phe(4-CH2SO3H)][Nle]GW[Nle][NMeD]-OH) |  |  |  |  |  |  |  | 
 | 0.135 | 91.2 |  |  |  |  | CC(C)C[C@H](NC(=O)[C@H](Cc1ccc(OS(=O)(=O)O)cc1)NC(=O)[C@H](CC(=O)O)NC(=O)COCCOCCNC(=O)COCCOCCNC(=O)CC[C@H](NC(=O)CCCCCCCCCCCCCCCCC(=O)O)C(=O)O)C(=O)NCC(=O)N[C@@H](Cc1c[nH]c2ccccc12)C(=O)N[C@@H](CCC(N)=O)C(=O)N(C)[C@H](CC(=O)O)C(=O)N(C)[C@@H](Cc1ccccc1)C(N)=O ({C18 diacid-γGlu-AEEA-AEEA}-D[sY]LGWQ[dNMeD][NMeF]-NH2) |  | 1.4 | 1.8 | 1.8 | Non-Toxic | 1.3 |  | 
 |  |  | inactive | inactive | inactive | inactive | CCCC[C@H](NC(=O)[C@H](Cc1ccc(OS(=O)(=O)O)cc1)NC(=O)[C@H](CC(=O)O)NC(=O)COCCOCCNC(=O)COCCOCCNC(=O)CC[C@H](NC(=O)CCCCCCCCCCCCCCCCC(=O)O)C(=O)O)C(=O)NCC(=O)N[C@@H](Cc1c[nH]c2ccccc12)C(=O)N[C@@H](CO)C(=O)N[C@@H](CC(=O)O)C(=O)N[C@@H](Cc1ccccc1)C(N)=O ({C18 diacid-γGlu-AEEA-AEEA}-D[sY][Nle]GWSDF-NH2) |  |  |  |  |  |  |  | 
 | 0.214 | 8.8 |  |  |  |  | CCCC[C@H](NC(=O)[C@H](Cc1ccc(CS(=O)(=O)O)cc1)NC(=O)[C@H](CC(=O)O)NC(=O)COCCOCCNC(=O)[C@H](CCCCN)NC(=O)COCCOCCNC(=O)COCCOCCNC(=O)CC[C@H](NC(=O)CCCCCCCCCCCCCCCCC(=O)O)C(=O)O)C(=O)NCC(=O)N[C@@H](Cc1c[nH]c2ccccc12)C(=O)N[C@@H](CCCC)C(=O)N(C)[C@H](CC(=O)O)C(=O)N(C)[C@@H](Cc1ccccc1)C(N)=O ({C18 diacid-γGlu-AEEA-AEEA}-K[AEEA]D[Phe(4-CH2SO3H)][Nle]GW[Nle][dNMeD][NMeF]-NH2) |  | 0.9 | 1.6 | 1.8 | Non-Toxic | 1.2 | 129 | 0.0631

SMILES | Drug uptake [1] | EC50 [3] [nM] | concentration at 96 h [8] [nM] | pEC50 [12] | pEC50 [13] | pIC50 [14] | pIC50 [15] | EC50 [2] [nM] | Activity (Sus scrofa [4]) [kg] | Activity (Sus scrofa [5]) [kg] | Activity (Sus scrofa [6]) [kg] | Activity [7] | Activity (Sus scrofa [9]) [kg] | IC50 [10] [nM] | IC50 [11] [nM]
CCCC[C@H](NC(=O)[C@H](Cc1ccc(CS(=O)(=O)O)cc1)NC(=O)[C@H](CC(=O)O)NC(=O)COCCOCCNC(=O)COCCOCCNC(=O)CC[C@H](NC(=O)CCCCCCCCCCCCCCCCC(=O)O)C(=O)O)C(=O)NCC(=O)N[C@@H](Cc1c[nH]c2ccccc12)C(=O)N[C@@H](CCCC)C(=O)N(C)[C@@H](CC(=O)O)C(=O)N(C)[C@@H](Cc1ccccc1)C(N)=O ({C18 diacid-γGlu-AEEA-AEEA}-D[Phe(4-CH2SO3H)][Nle]GW[Nle][NMeD][NMeF]-NH2) |  | 0.107 | 93.9 |  |  |  |  | > 1000 | 1.9 | 2.3 | 2.2 | Non-Toxic | 2 | 8710 | 0.316

Source: ChEMBL document CHEMBL4368907 (J Med Chem, 2019)
